Measurements reported in paper PMC3830801, “Synthesis and Biological Evaluation of 2-Hydroxy-3-[(2-aryloxyethyl)amino]propyl 4-[(Alkoxycarbonyl)amino]benzoates” (The Scientific World Journal, 2013).

Key:
[1] = tested on: Mycobacterium avium subsp. paratuberculosis CIT03; experiment: In vitro antimycobacterial evaluation (alamarBlue, MIC); assay type: cell-based; conditions: Mycobacterium avium, 264 h; MIC/IC90, 11 days incubation, 37°C
Description: (§1) Clinical isolates of Mycobacterium avium subsp. paratuberculosis CIT03 and M. intracellulare were grown in Middlebrook broth (MB), supplemented with oleic-albumin-dextrose-catalase supplement (OADC, Becton Dickinson, UK) and mycobactin J (2 μg/mL). Identification of these isolates was performed using biochemical and molecular protocols. At log phase growth, the culture (10 mL) was centrifuged at 15,000 rpm/20 min using a bench top centrifuge (Model CR 4–12, Jouan Inc., UK). Following the removal of the supernatant, the pellet was washed in fresh Middlebrook 7H9GC broth and resuspended in fresh supplemented MB (10 mL). The turbidity was adjusted to match McFarland standard no. 1 (3 × 10^8 cfu) with MB broth. A further 1 : 20 dilution of the culture was then performed in MB broth. The antimicrobial susceptibility of all four mycobacterial species was investigated in a 96-well plate format. In these experiments, sterile deionised water (300 μL) was added to all outer-perimeter wells of the plates to minimize evaporation of the medium in the test wells during incubation. Each evaluated compound (100 μL) was incubated with each of the mycobacterial species (100 μL). Dilutions of each compound were prepared in duplicate. For all synthesized compounds, final concentrations ranged from 1,000 μg/mL to 8 μg/mL. All compounds were prepared in DMSO, and subsequent dilutions were made in supplemented MB. The plates were sealed with parafilm and incubated at 37°C, for 7 days in the case of M. intracellulare and 11 days in the case of M. avium paratuberculosis. Following incubation, a 10% addition of alamarBlue (AbD Serotec) was mixed with each well, and readings at 570 nm and 600 nm were taken, initially for background subtraction and subsequently after 24 h reincubation. […] For noninterfering compounds, a blue colour in the well was interpreted as an absence of growth, and a pink colour was scored as growth. The MIC was initially defined as the lowest concentration which prevented a visual colour change from blue to pink. […] The MIC/IC90 value is routinely and widely used in bacterial assays and is a standard detection limit according to the Clinical and Laboratory Standards Institute (CLSI, http://www.clsi.org/).

[2] = tested on: Mycobacterium intracellulare; experiment: as above; assay type: cell-based; conditions: Mycobacterium intracellulare, 168 h; MIC/IC90, 7 days incubation, 37°C
Description: as §1

[3] = Lipophilicity determination by HPLC (capacity factor k / log k); assay type: physicochemical; conditions: RP-HPLC, C18, MeOH 55%/H2O 45%
Text: A Waters Alliance 2695 XE HPLC separation module and a Waters Photodiode Array Detector 2996 (Waters Corp., Milford, MA, USA) were used. A Symmetry C18 5 μm, 4.6 × 250 mm, part number WAT054275 (Waters Corp., Milford, MA, USA) chromatographic column was used. The HPLC separation process was monitored by Empower 2 Chromatography Data Software, Waters 2009 (Waters Corp., Milford, MA, USA). A mixture of MeOH p.a. (55%) and H2O-HPLC–Milli-Q Grade (45%) was used as a mobile phase. The total flow of the column was 1.0 mL/min, injection volume 30 μL, column temperature 45°C, and sample temperature 10°C. The detection wavelength of 210 nm was chosen. The KI methanolic solution was used for the dead time (t D) determination. Retention times (t R) were measured in minutes. The capacity factors k were calculated using the Empower 2 Chromatography Data Software according to formula k = (t R − t D)/t D, where t R is the retention time of the solute, whereas t D denotes the dead time obtained using an unretained analyte. logk, calculated from the capacity factor k, is used as the lipophilicity index converted to logP scale.

[4] = pKa determination by RP-HPLC; assay type: physicochemical; conditions: from retention factor vs pH of mobile phase, recalculated for water medium
spinach chloroplasts = experiment: Photosynthetic electron transport (PET) in spinach chloroplasts (DCPIP photoreduction); assay type: biochemical, Spinacia oleracea L.; conditions: DMSO 8% v/v
Description: Chloroplasts were prepared from spinach (Spinacia oleracea L.) according to Masarovičová and Král'ová [38]. The inhibition of photosynthetic electron transport (PET) in spinach chloroplasts was determined spectrophotometrically (Genesys 6, Thermo Scientific, USA), using an artificial electron acceptor 2,6-dichlorophenol-indophenol (DCIPP) according to Král'ová et al., and the rate of photosynthetic electron transport was monitored as a photoreduction of DCPIP. The measurements were carried out in phosphate buffer (0.02 mol/L, pH 7.2) containing sucrose (0.4 mol/L), MgCl2 (0.005 mol/L), and NaCl (0.015 mol/L). The chlorophyll content was 30 mg/L in these experiments, and the samples were irradiated (~100 W/m^2 with 10 cm distance) with a halogen lamp (250 W) using a 4 cm water filter to prevent warming of the samples (suspension temperature 22°C). The studied compounds were dissolved in DMSO due to their limited water solubility, and the concentration of DMSO was constant (8% (v/v)) in control as well as in amphiphile-treated samples.

| Compound | MIC [1] [µM] | MIC [2] [µM] | Log k [3] | pKa [4] | effect on the rate of PET (in words) (spinach chloroplasts) |
| --- | --- | --- | --- | --- | --- |
| CCCCOC(=O)Nc1ccc(C(=O)OCC(O)CNCCOc2ccc(OC)cc2)cc1.Cl (centres unmarked) [Compound 20d, 2-Hydroxy-3-[2-(4-methoxyphenoxy)ethylamino]-propyl 4-(Butoxycarbonylamino)benzoate Hydrochloride] | 62 | 121 | 0.4241 | 8.18 | significantly stimulated the rate of PET |
| CCCOC(=O)Nc1ccc(C(=O)OCC(O)CNCCOc2ccc(OC)cc2)cc1.Cl (centres unmarked) [Compound 20c, 2-Hydroxy-3-[2-(4-methoxyphenoxy)ethylamino]-propyl 4-(Propoxycarbonylamino)benzoate Hydrochloride] | 259 | 259 | 0.4108 | 7.99 | relatively strong PET stimulation |
| CCCCOC(=O)Nc1ccc(C(=O)OCC(O)CNCCOc2ccccc2F)cc1.Cl (centres unmarked) [Compound 22d, 3-[2-(2-Fluorophenoxy)ethylamino]-2-hydroxypropyl 4-(Butoxycarbonylamino)benzoate Hydrochloride] | 124 | 124 | 0.4341 | 7.96 | significantly stimulated the rate of PET |
| CCCCOC(=O)Nc1ccc(C(=O)OCC(O)CNCCOc2ccccc2OC)cc1.Cl (centres unmarked) [Compound 19d, 2-Hydroxy-3-[2-(2-methoxyphenoxy)ethylamino]-propyl 4-(Butoxycarbonylamino)benzoate Hydrochloride] | 62 | 201 | 0.4228 | 8.73 | significantly stimulated the rate of PET |
| COC(=O)Nc1ccc(C(=O)OCC(O)CNCCOc2c(OC)cccc2OC)cc1.Cl (centres unmarked) [Compound 21a, 2-Hydroxy-3-[2-(2,6-dimethoxyphenoxy)ethylamino]-propyl 4-(Methoxycarbonylamino)benzoate Hydrochloride] | 516 | 516 | 0.3865 | 9.14 | – |
| CCCOC(=O)Nc1ccc(C(=O)OCC(O)CNCCOc2ccccc2F)cc1.Cl (centres unmarked) [Compound 22c, 3-[2-(2-Fluorophenoxy)ethylamino]-2-hydroxypropyl 4-(Propoxycarbonylamino)benzoate Hydrochloride] | 265 | 265 | 0.4206 | 7.97 | – |
| CCCOC(=O)Nc1ccc(C(=O)OCC(O)CNCCOc2ccc(F)cc2)cc1.Cl (centres unmarked) [Compound 23c, 3-[2-(4-Fluorophenoxy)ethylamino]-2-hydroxypropyl 4-(Propoxycarbonylamino)benzoate Hydrochloride] | 66 | 265 | 0.4228 | 8.16 | – |
| CCCOC(=O)Nc1ccc(C(=O)OCC(O)CNCCOc2ccccc2OC)cc1.Cl (centres unmarked) [Compound 19c, 2-Hydroxy-3-[2-(2-methoxyphenoxy)ethylamino]-propyl 4-(Propoxycarbonylamino)benzoate Hydrochloride] | 64 | 259 | 0.4089 | 8.67 | relatively strong PET stimulation |
| COC(=O)Nc1ccc(C(=O)OCC(O)CNCCOc2ccccc2OC)cc1.Cl (centres unmarked) [Compound 19a, 2-Hydroxy-3-[2-(2-methoxyphenoxy)ethylamino]-propyl 4-(Methoxycarbonylamino)benzoate Hydrochloride] | 275 | 550 | 0.3870 | 8.82 | – |
